Where two headings read alike, the source gives them in different places.
Key:
[1] = tested on: SMN protein in spinal muscular atrophy (SMA) patient fibroblasts (GM03813, Coriell); test: SMN protein assay, Mesoscale Discovery (MSD); format: cell-based, human; conditions: for EC50: read-out: SMN2 protein EC50
In short: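 Absolute SMN levels were quantified by MSD against an SMN protein standard curve (1 μg/ml to 19.5 pg/ml) run on each plate. Samples were lysates of GM03813 patient fibroblasts (7000 cells/well) treated 48 hours with compound doses from 2.5 μM down to 0.6 nM.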

[2] = tested on: MDR1 (P-gp); test: in vitro; conditions: dog, MDCK-MDR1, pH 7.4
[3] = tested on: MDR1; test: in vitro; conditions: dog, MDCK-MDR1, pH 7.4
[4] = tested on: MDR1-MDCK cell monolayers; conditions: dog, MDCK-MDR1, 120 min, 5 μM, pH 7.4
[5] = tested on: mHTT protein in GM04724 (CAG 70/20) Huntington's disease patient lymphoblast cells; test: mHTT protein assay, 2B7-MW1 assay via Mesoscale Discovery (MSD); format: cell-based, human
In short: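 Signal from the 2B7-MW1 antibody pair on MSD, rising with polyQ length and smaller HTT fragments, measured mHTT after 48 h compound exposure (0.6 nM–10 μM) in GM04724 cells. A parallel replicate plate gave CellTiter Glo viability.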

[6] = SMA patient fibroblasts (GM03813), 48 hours
[7] = GM04724 (CAG 70/20) Huntington's disease patient lymphoblasts
[8] = SMA patient fibroblasts GM03813, 48 hours, MSD
[9] = GM04724 Huntington's disease patient lymphoblasts

| SMILES | SMN2 protein EC50 [1, 6] | Papp A→B at 120 min, 5 μM [2] [×10⁻⁶ cm/s] | Papp B→A at 120 min, 5 μM [2] [×10⁻⁶ cm/s] | efflux ratio at 120 min, 5 μM [3] | MDCK-MDR1: % Recov A-B [4] [%] | MDCK-MDR1: % Recov B-A [4] [%] | mHTT protein EC50 [5, 7] | SMN2 protein EC50 [1, 8] | mHTT protein EC50 [5, 9] | EC50 [1, 8] [nM] | EC50 [5, 9] [nM] | EC50 [1, 6] [nM] | EC50 [5, 7] [nM] |
| --- | --- | --- | --- | --- | --- | --- | --- | --- | --- | --- | --- | --- | --- |
| CN(c1ccc(-c2ccc(C(F)F)cc2O)nn1)[C@@H]1C[C@H]2CC[C@H](N2)[C@@H]1F (single isomer, unassigned) [Compound 120A] | E (501 ≤ E ≤ 10.000) | 4.59 | 34.8 | 8 | 76 | 74 | E (501 ≤ E ≤ 10.000) |  |  |  |  |  |  |
| CN1[C@@H]2CC[C@H]1[C@H](F)[C@H](N(c1ccc(-c3cc4ncn(CC(F)(F)F)c(=O)c4cc3O)nn1)C1CC1)C2 (single isomer, unassigned) [Compound 111A] | E (501 ≤ E ≤ 10.000) | 0.89 | 44.3 | 45 | 90 | 83 | E (501 ≤ E ≤ 10.000) |  |  |  |  |  |  |
| CN(c1ccc(-c2cc3ccn(C)c(=O)c3s2)nn1)[C@@H]1C[C@H]2CC[C@H](N2)[C@@H]1F (single isomer, unassigned) [Compound 67A] |  | 0.42 | 37.9 | 90 | 94 | 99 |  | E (501 ≤ E ≤ 10.000) | E (501 ≤ E ≤ 10.000) |  |  |  |  |
| CN(c1ccc(-c2cnc(C#N)cc2O)nn1)[C@@H]1C[C@H]2CC[C@H](N2)[C@@H]1F (single isomer, unassigned) [Compound 71A] |  | 3.87 | 26.2 | 7 | 88 | 92 |  | E (501 ≤ E ≤ 10.000) | E (501 ≤ E ≤ 10.000) |  |  |  |  |
| O=C(c1cc2cc(O)c(-c3ccc(N(C4CC4)[C@@H]4C[C@H]5CC[C@H](N5)[C@@H]4F)nn3)cc2o1)N1CCC1 [Compound 57A, azetidin-1-yl(6-(6-(cyclopropyl((1S,2S,3R,5R)-2-fluoro-8-azabicyclo[3.2.1]octan-3-yl)amino)pyridazin-3-yl)-5-hydroxybenzofuran-2-yl)methanone] |  | 0.78 | 63.2 | 80 | 89 | 104 |  | E (501 ≤ E ≤ 10.000) | E (501 ≤ E ≤ 10.000) |  |  |  |  |
| CN(c1ccc(-c2cc3oc(C(=O)N4CCC4)cc3cc2O)nn1)[C@@H]1C[C@H]2CC[C@@H]([C@@H]1F)N2C [Compound 107A, azetidin-1-yl(6-(6-(((1S,2S,3R,5R)-2-fluoro-8-methyl-8-azabicyclo[3.2.1]octan-3-yl)(methyl)amino)pyridazin-3-yl)-5-hydroxybenzofuran-2-yl)methanone] | E (501 ≤ E ≤ 10.000) | 1.27 | 55.1 | 43 | 80 | 82 | E (501 ≤ E ≤ 10.000) |  |  |  |  |  |  |
| CN(c1ccc(-c2cc3cnccc3cc2O)nn1)[C@@H]1C[C@H]2CC[C@@H]([C@@H]1F)N2C [Compound 93A, 7-(6-(((1S,2S,3R,5R)-2-fluoro-8-methyl-8-azabicyclo[3.2.1]octan-3-yl)(methyl)amino)pyridazin-3-yl)isoquinolin-6-ol] |  | 5.27 | 17.9 | 3 | 50 | 70 |  |  | E (501 ≤ E ≤ 10.000) | 101 to 500 |  |  |  |
| CC(=O)N(C)c1ccc(-c2ccc(N(C)[C@@H]3C[C@H]4CC[C@H](N4)[C@@H]3F)nn2)c(O)c1 [Compound 35A, N-(4-(6-(((1S,2S,3R,5R)-2-fluoro-8-azabicyclo[3.2.1]octan-3-yl)(methyl)amino)pyridazin-3-yl)-3-hydroxyphenyl)-N-methylacetamide] |  | 0.21 | 41 | 197 | 102 | 103 |  | E (501 ≤ E ≤ 10.000) | E (501 ≤ E ≤ 10.000) |  |  |  |  |
| CN(c1ccc(-c2cn3c(=O)ccnc3cc2O)nn1)[C@@H]1C[C@H]2CC[C@@H]([C@@H]1F)N2C (single isomer, unassigned) [Compound 95A] |  | 0.15 | 8.79 | 59 | 85 | 115 |  | E (501 ≤ E ≤ 10.000) | E (501 ≤ E ≤ 10.000) |  |  |  |  |
| CN(c1ccc(-c2cc(C#N)ccc2O)nn1)[C@@H]1C[C@H]2CC[C@H](N2)[C@@H]1F (single isomer, unassigned) [Compound 70A] |  | 3.17 | 60.2 | 19 | 86 | 89 |  |  | E (501 ≤ E ≤ 10.000) | 101 to 500 |  |  |  |
| CCc1cn(-c2ccc(-c3ccc(N(C)[C@@H]4C[C@H]5CC(F)(F)[C@@H](C4)N5)nn3)c(O)c2)nn1 (single isomer, unassigned) [Compound 64A] |  | 7.18 | 52.2 | 7 | 64 | 78 |  | E (501 ≤ E ≤ 10.000) | E (501 ≤ E ≤ 10.000) |  |  |  |  |
| CN(c1ccc(-c2cc3cc[nH]c(=O)c3s2)nn1)[C@@H]1C[C@H]2CC[C@H](N2)[C@@H]1F (single isomer, unassigned) [Compound 66A] |  | 0.09 | 4.4 | 51 | 93 | 100 |  | E (501 ≤ E ≤ 10.000) | E (501 ≤ E ≤ 10.000) |  |  |  |  |
| CNC(=O)c1cc(O)c(-c2ccc(N(C)[C@@H]3C[C@H]4CC[C@@H]([C@@H]3F)N4C)nn2)cc1F (single isomer, unassigned) [Compound 96A] |  | 2.97 | 53.7 | 18 | 100 | 114 |  | E (501 ≤ E ≤ 10.000) | E (501 ≤ E ≤ 10.000) |  |  |  |  |
| CN(c1ccc(-c2cc3ncn(CC(F)(F)F)c(=O)c3cc2O)nn1)[C@H]1C[C@@H]2CC(F)(F)[C@H](C1)N2 [Compound 59B, 7-(6-(((1R,3S,5S)-6,6-difluoro-8-azabicyclo[3.2.1]octan-3-yl)(methyl)amino)pyridazin-3-yl)-6-hydroxy-3-(2,2,2-trifluoroethyl)quinazolin-4(3H)-one] |  | 2.97 | 84.2 | 28 | 107 | 101 |  | E (501 ≤ E ≤ 10.000) | E (501 ≤ E ≤ 10.000) |  |  |  |  |
| Cc1nc2cc(O)c(-c3ccc(N(C)[C@@H]4C[C@H]5CC[C@H](N5)C4F)nn3)cc2o1 (stereo in doubt) [Compound 40A, 6-(6-(((1S,2R,3R,5R)-2-fluoro-8-azabicyclo[3.2.1]octan-3-yl)(methyl)amino)pyridazin-3-yl)-2-methylbenzo[d]oxazol-5-ol] |  | 3.68 | 57.9 | 16 | 62 | 92 |  | E (501 ≤ E ≤ 10.000) |  |  | 101 to 500 |  |  |
| CN(C)C(=O)c1cc2cc(O)c(-c3ccc(N(C)[C@H]4C[C@@H]5CC[C@H]([C@H]4F)N5C)nn3)cc2o1 (single isomer, unassigned) [Compound 106B] |  | 1.61 | 55.7 | 35 | 92 | 99 | E (501 ≤ E ≤ 10.000) |  |  |  |  | 101 to 500 |  |
| Cc1nc2cc(-c3ccc(N(C)[C@@H]4C[C@H]5CC[C@@H]([C@@H]4F)N5C)nn3)c(O)cc2c(=O)n1C [Compound 105A, 7-(6-(((1S,2S,3R,5R)-2-fluoro-8-methyl-8-azabicyclo[3.2.1]octan-3-yl)(methyl)amino)pyridazin-3-yl)-6-hydroxy-2,3-dimethylquinazolin-4(3H)-one] |  | 0.58 | 56.9 | 99 | 105 | 115 |  |  |  |  |  | 101 to 500 | 101 to 500 |
| Cc1cc(=O)c2cc(O)c(-c3ccc(N(C)[C@@H]4C[C@H]5CC[C@@H]([C@@H]4F)N5C)nn3)cc2o1 [Compound 99A, 7-(6-(((1S,2S,3R,5R)-2-fluoro-8-methyl-8-azabicyclo[3.2.1]octan-3-yl)(methyl)amino)pyridazin-3-yl)-6-hydroxy-2-methyl-4H-chromen-4-one] |  | 2 | 36.3 | 18 | 114 | 91 | E (501 ≤ E ≤ 10.000) |  |  |  |  | 101 to 500 |  |
